Key:
Assay type in all cases: cell-based
SMARCA4 = molecular target: T1, SMARCA4 (Homo sapiens, UniProt P51532); assay: SMARCA4 Western blot degradation in MV4-11 cells; settings: for Dmax: MV4-11, MV4-11 cells, read-out: SMARCA4 MSD MV411 degradation 24 h: average Dmax %; for Dmax / DC50: 24 h; for DC50 / SMARCA4 MSD MV411 degradation 24 h: average Dmax %: MV4-11 cells; for DC50: read-out: SMARCA4 MSD MV411 degradation 24 h: Mean external-Abs DC50
T1 construct: SMARCA2/SMARCA4 protein degradation selectivity in MV4-11 cells; endogenous in cells; host or cells: MV4-11
Summary of the method: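 24 h compound exposure, MV4-11; RIPA lysates → SDS-PAGE → NC membrane; anti-SMARCA2/BRM, anti-BRG1, β-actin loading control; LI-COR fluorescence read. DC50 and Dmax at 24 h reported as letter bins.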

SMARCA2 [1] = molecular target: T2, SMARCA2 (Homo sapiens, UniProt P51531); assay: MSD SMARCA2 degradation in A549 cell line; settings: for Dmax: A549, A549 cells; for Dmax / DC50: 24 h; for DC50 / SMARCA2 MSD A549 degradation 24 h: Average Dmax %: A549 cells; for DC50: read-out: SMARCA2 MSD A549 degradation 24 h: Average external-Abs DC50
Summary of the method: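 A549 cells treated 24 h with compound, 3-fold series from 1000 nM. Lysates captured on MSD plates and SMARCA2 quantified with anti-SMARCA2 and SULFO-TAG secondary antibodies (electrochemiluminescence). DC50 and Dmax (% degradation at 24 h) reported as letter bins.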

SMARCA2 [2] = molecular target: T2, SMARCA2; assay: SMARCA2 Western blot degradation in MV4-11 cells; parameters: SMARCA2/SMARCA4 protein degradation selectivity in MV4-11 cells; endogenous in cells; host or cells: MV4-11; settings: for Dmax: MV4-11, MV4-11 cells, read-out: SMARCA2 MSD MV411 degradation 24 h: average Dmax %; for Dmax / DC50 / SMARCA2 MSD MV411 degradation 24 h: average Dmax %: 24 h; for DC50 / Selectivity in MV411 / SMARCA2 MSD MV411 degradation 24 h: average Dmax %: MV4-11 cells; for DC50: read-out: SMARCA2 MSD MV411 degradation 24 h: Mean external-Abs DC50; for Selectivity in MV411: SMARCA2/4 selectivity

T2 sequence (P51531 whole entry): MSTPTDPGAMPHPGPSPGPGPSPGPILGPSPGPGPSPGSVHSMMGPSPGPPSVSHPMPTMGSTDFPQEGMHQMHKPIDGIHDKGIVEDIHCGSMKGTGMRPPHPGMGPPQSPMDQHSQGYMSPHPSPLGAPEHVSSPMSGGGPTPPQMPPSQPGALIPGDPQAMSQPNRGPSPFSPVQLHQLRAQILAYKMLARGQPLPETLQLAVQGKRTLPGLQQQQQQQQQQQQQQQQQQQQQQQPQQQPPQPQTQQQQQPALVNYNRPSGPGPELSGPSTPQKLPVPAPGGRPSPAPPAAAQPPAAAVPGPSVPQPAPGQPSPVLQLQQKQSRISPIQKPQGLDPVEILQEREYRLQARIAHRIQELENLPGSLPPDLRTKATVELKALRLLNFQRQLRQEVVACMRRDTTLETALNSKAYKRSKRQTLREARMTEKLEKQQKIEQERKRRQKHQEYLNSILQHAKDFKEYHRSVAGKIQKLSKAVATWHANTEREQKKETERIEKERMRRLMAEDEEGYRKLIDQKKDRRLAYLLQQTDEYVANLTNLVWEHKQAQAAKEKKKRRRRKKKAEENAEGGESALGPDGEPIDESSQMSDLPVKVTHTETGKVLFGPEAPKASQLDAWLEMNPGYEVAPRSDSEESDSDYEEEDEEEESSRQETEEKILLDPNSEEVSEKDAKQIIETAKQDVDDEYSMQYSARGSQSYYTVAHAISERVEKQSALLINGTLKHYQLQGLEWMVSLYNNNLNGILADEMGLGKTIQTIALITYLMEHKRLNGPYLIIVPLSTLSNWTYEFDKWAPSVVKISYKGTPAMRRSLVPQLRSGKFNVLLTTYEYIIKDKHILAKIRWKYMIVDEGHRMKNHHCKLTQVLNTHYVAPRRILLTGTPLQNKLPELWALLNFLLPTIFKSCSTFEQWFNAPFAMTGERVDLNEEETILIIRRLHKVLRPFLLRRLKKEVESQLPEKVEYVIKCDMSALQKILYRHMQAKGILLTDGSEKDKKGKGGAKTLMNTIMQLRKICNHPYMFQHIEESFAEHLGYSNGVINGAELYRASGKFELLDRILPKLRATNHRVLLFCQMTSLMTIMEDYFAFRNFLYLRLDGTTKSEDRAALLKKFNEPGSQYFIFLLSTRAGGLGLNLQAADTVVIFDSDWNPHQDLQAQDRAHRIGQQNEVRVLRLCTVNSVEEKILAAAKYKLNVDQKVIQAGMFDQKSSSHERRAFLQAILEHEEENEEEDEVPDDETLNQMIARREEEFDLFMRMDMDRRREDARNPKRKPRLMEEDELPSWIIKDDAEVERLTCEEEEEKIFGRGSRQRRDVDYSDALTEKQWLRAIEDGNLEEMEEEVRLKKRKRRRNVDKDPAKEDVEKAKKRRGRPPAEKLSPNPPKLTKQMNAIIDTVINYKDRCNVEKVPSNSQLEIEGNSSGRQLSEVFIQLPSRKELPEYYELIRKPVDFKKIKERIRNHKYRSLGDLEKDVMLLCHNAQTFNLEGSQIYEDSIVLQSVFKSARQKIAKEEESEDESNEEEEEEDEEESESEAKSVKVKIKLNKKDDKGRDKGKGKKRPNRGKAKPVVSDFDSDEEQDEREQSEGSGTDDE
T1 sequence (P51532 whole entry): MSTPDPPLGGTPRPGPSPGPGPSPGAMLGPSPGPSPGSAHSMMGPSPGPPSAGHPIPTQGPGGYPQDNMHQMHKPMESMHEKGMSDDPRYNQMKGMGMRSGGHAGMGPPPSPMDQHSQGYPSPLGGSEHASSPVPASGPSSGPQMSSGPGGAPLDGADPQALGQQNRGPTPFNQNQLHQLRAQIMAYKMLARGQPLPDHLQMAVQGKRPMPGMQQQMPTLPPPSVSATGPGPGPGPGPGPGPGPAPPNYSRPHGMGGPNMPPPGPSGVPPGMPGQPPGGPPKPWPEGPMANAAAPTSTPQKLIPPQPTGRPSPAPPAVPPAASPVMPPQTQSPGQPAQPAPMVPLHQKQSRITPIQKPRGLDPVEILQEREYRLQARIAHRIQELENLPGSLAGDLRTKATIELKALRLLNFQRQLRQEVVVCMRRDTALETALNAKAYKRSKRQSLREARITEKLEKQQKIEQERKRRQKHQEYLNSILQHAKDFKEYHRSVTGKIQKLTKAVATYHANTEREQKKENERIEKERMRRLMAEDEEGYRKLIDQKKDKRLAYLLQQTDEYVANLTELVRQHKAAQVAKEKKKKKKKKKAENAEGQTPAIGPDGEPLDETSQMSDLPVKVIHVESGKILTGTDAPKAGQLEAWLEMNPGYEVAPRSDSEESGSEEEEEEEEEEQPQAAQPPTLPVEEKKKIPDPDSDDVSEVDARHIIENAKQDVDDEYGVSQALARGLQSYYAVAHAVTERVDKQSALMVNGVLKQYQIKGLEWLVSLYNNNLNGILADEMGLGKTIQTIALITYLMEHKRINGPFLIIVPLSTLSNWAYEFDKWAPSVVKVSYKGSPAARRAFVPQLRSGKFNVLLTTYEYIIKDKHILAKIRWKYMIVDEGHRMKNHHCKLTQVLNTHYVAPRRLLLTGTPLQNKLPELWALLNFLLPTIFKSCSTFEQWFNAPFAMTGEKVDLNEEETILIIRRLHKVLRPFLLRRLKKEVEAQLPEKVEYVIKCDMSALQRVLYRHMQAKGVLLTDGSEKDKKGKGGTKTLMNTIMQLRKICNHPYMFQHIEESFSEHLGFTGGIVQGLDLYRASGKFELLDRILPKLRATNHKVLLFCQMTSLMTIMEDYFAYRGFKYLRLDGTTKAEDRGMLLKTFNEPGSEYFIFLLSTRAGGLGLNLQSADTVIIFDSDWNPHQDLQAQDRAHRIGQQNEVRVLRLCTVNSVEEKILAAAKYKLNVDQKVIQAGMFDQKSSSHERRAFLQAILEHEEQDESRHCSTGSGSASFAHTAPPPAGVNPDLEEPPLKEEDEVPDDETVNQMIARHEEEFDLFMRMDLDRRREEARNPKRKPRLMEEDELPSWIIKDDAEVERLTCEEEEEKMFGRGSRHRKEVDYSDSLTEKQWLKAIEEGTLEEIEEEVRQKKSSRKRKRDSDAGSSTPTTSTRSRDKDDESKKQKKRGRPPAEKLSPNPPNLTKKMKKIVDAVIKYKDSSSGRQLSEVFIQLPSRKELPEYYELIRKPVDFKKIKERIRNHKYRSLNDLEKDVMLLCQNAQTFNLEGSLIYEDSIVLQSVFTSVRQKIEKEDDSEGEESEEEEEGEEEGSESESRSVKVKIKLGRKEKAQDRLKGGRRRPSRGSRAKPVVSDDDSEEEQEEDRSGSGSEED

Row | SMILES | Dmax (SMARCA4) | DC50 (SMARCA4) | Dmax (SMARCA2 [1]) | DC50 (SMARCA2 [1]) | Dmax (SMARCA2 [2]) | DC50 (SMARCA2 [2]) | Selectivity in MV411 (SMARCA2 [2]) | SMARCA4 MSD MV411 degradation 24 h: average Dmax % (SMARCA4) | SMARCA2 MSD A549 degradation 24 h: Average Dmax % (SMARCA2 [1]) | SMARCA2 MSD MV411 degradation 24 h: average Dmax % (SMARCA2 [2])
1 | C#Cc1ccc(CNC(=O)[C@@H]2C[C@@H](O)CN2C(=O)[C@@H](NC(=O)N2CC3(CC(N4CCC(N5CCC(N6CCc7[nH]c8nnc(-c9ccccc9O)cc8c7[C@H]6C)CC5)CC4)C3)C2)C(C)(C)C)cc1 (single isomer, unassigned) [I-179] | 50 to 70% | > 100 nM | > 90% | > 100 nM | 70 to 90% | 10 to 100 nM | B (B (>100-500 fold)) | – | – | –
2 | C#Cc1ccc(CNC(=O)[C@@H]2C[C@@H](O)CN2C(=O)[C@@H](NC(=O)[C@H]2CCC3(CC2)C[C@H](N2CCN(c4cnc(N5CCN6c7cc(-c8ccccc8O)nnc7NC[C@H]6C5)nc4)CC2)C3)C(C)(C)C)c(OC)c1 (single isomer, unassigned) [I-195] | 70 to 90% | 10 to 100 nM | > 90% | 10 to 50 nM | > 90% | 1 to 10 nM | C (C (10-100 fold)) | – | – | –
3 | C#Cc1ccc(CNC(=O)[C@@H]2C[C@@H](O)CN2C(=O)[C@@H](NC(=O)[C@H]2CCC3(CC2)C[C@H](N2CCN(c4cnc(N5CCN6c7cc(-c8ccccc8O)nnc7NC[C@H]6C5)nc4)CC2)C3)C(C)(C)C)c(OC)c1 (single isomer, unassigned) [I-196] | – | > 100 nM | – | 10 to 50 nM | – | 1 to 10 nM | C (C (10-100 fold)) | C (C (50-70% degradation)) | A (A (>90% degradation)) | B (B (>70-90% degradation))
4 | C#Cc1ccc(CNC(=O)[C@@H]2C[C@@H](O)CN2C(=O)[C@@H](NC(=O)C2CCN(C[C@H]3CC[C@@H](N4CCc5[nH]c6nnc(-c7ccccc7O)cc6c5[C@H]4C)CC3)CC2)C(C)(C)C)cc1 (single isomer, unassigned) [I-201] | 50 to 70% | > 100 nM | > 90% | > 100 nM | 70 to 90% | 1 to 10 nM | C (C (10-100 fold)) | – | – | –
5 | C#Cc1ccc(CNC(=O)[C@@H]2C[C@@H](O)CN2C(=O)[C@@H](NC(=O)C2CCN(C[C@H]3CC[C@H](N4CCc5[nH]c6nnc(-c7ccccc7O)cc6c5[C@H]4C)CC3)CC2)C(C)(C)C)cc1 (single isomer, unassigned) [I-202] | 50 to 70% | > 100 nM | > 90% | > 100 nM | 70 to 90% | 1 to 10 nM | C (C (10-100 fold)) | – | – | –
6 | C#Cc1ccc(C2(NC(=O)[C@@H]3C[C@@H](O)CN3C(=O)[C@@H](NC(=O)[C@H]3CC4(C3)C[C@H](N3CCC(N5CCC(N6CCN7c8cc(-c9ccccc9O)nnc8NC[C@H]7C6)CC5)CC3)C4)C(C)(C)C)CC2)cc1 (single isomer, unassigned) [I-211] | < 50% | > 100 nM | > 90% | 50 to 100 nM | 70 to 90% | 1 to 10 nM | A (A (>500 fold)) | – | – | –
7 | C#Cc1ccc([C@H](C)NC(=O)[C@@H]2C[C@@H](O)CN2C(=O)[C@@H](NC(=O)[C@H]2CC3(C2)C[C@H](N2CCC(N4CCC(N5CCN6c7cc(-c8ccccc8O)nnc7NC[C@H]6C5)CC4)CC2)C3)C(C)(C)C)cc1 (single isomer, unassigned) [I-213] | < 50% | > 100 nM | > 90% | > 100 nM | 70 to 90% | 1 to 10 nM | B (B (>100-500 fold)) | – | – | –
8 | C#Cc1ccc(CNC(=O)[C@@H]2C[C@@H](O)CN2C(=O)[C@@H](NC(=O)[C@H]2CCC3(CC2)C[C@H](N2CCC(N4CC5(CC(N6CCN7c8cc(-c9ccccc9O)nnc8NC[C@H]7C6)C5)C4)CC2)C3)C(C)(C)C)c(Cl)c1 (single isomer, unassigned) [I-220] | < 50% | > 100 nM | > 90% | > 100 nM | 70 to 90% | 10 to 100 nM | B (B (>100-500 fold)) | – | – | –
9 | C#Cc1ccc(CNC(=O)[C@@H]2C[C@@H](O)CN2C(=O)[C@@H](NC(=O)[C@H]2CCC3(CC2)C[C@H](N2CCC(N4CCC(N5CCN6c7cc(-c8ccccc8O)nnc7NC[C@H]6C5)CC4)CC2)C3)C(C)(C)C)c(Cl)c1 (single isomer, unassigned) [I-221] | < 50% | > 100 nM | > 90% | > 100 nM | 50 to 70% | 10 to 100 nM | C (C (10-100 fold)) | – | – | –
10 | C#Cc1ccc(CNC(=O)[C@@H]2C[C@@H](O)CN2C(=O)[C@@H](NC(=O)[C@H]2CCC3(CC2)C[C@H](N2CCC(N4CC5(CC(N6CCN7c8cc(-c9ccccc9O)nnc8NC[C@H]7C6)C5)C4)CC2)C3)C(C)(C)C)cc1 (single isomer, unassigned) [I-223] | 50 to 70% | > 100 nM | > 90% | 50 to 100 nM | 70 to 90% | 1 to 10 nM | C (C (10-100 fold)) | – | – | –
11 | C#Cc1ccc(C2(NC(=O)[C@@H]3C[C@@H](O)CN3C(=O)[C@@H](NC(=O)[C@H]3CC4(C3)C[C@H](N3CCC(N5CCC(N6CCN7c8cc(-c9ccccc9O)nnc8NC[C@H]7C6)CC5)CC3)C4)C(C)(C)C)CC2)cc1 (single isomer, unassigned) [I-225] | – | > 100 nM | – | > 100 nM | – | 1 to 10 nM | B (B (>100-500 fold)) | D (D (<50% degradation)) | A (A (>90% degradation)) | B (B (>70-90% degradation))
12 | C#Cc1ccc([C@H](C)NC(=O)[C@@H]2C[C@@H](O)CN2C(=O)[C@@H](NC(=O)[C@H]2CC3(C2)C[C@H](N2CCC(N4CCC(N5CCN6c7cc(-c8ccccc8O)nnc7NC[C@H]6C5)CC4)CC2)C3)C(C)(C)C)cc1 (single isomer, unassigned) [I-226] | – | > 100 nM | – | > 100 nM | – | 10 to 100 nM | B (B (>100-500 fold)) | D (D (<50% degradation)) | A (A (>90% degradation)) | B (B (>70-90% degradation))
13 | C#Cc1ccc(CNC(=O)[C@@H]2C[C@@H](O)CN2C(=O)[C@@H](NC(=O)[C@H]2CC3(C2)C[C@H](N2CCC(N4CCC(N5CCN6c7cc(-c8ccccc8O)nnc7NC[C@H]6C5)CC4)CC2)C3)C(C)(C)C)c(Cl)c1 (single isomer, unassigned) [I-229] | 50 to 70% | > 100 nM | > 90% | > 100 nM | 70 to 90% | 10 to 100 nM | B (B (>100-500 fold)) | – | – | –
14 | C#Cc1ccc(CNC(=O)[C@@H]2C[C@@H](O)CN2C(=O)[C@@H](NC(=O)[C@H]2CC3(C2)C[C@H](N2CCC(N4CCC(N5CCN6c7cc(-c8ccccc8O)nnc7NC[C@H]6C5)CC4)CC2)C3)C(C)(C)C)c(Cl)c1 (single isomer, unassigned) [I-230] | – | > 100 nM | – | 10 to 50 nM | – | 1 to 10 nM | B (B (>100-500 fold)) | C (C (50-70% degradation)) | A (A (>90% degradation)) | B (B (>70-90% degradation))
15 | C#Cc1ccc(CNC(=O)[C@@H]2C[C@@H](O)CN2C(=O)[C@@H](NC(=O)[C@H]2CC3(C2)C[C@H](N2CCC(N4CCC(N5CCN6c7cc(-c8ccccc8O)nnc7NC[C@H]6C5)CC4)CC2)C3)C(C)(C)C)c(OC)c1 (single isomer, unassigned) [I-231] | 50 to 70% | > 100 nM | > 90% | 50 to 100 nM | > 90% | 1 to 10 nM | C (C (10-100 fold)) | – | – | –
16 | C#Cc1ccc(CNC(=O)[C@@H]2C[C@@H](O)CN2C(=O)[C@@H](NC(=O)[C@H]2CC3(C2)C[C@H](N2CCC(N4CCC(N5CCN6c7cc(-c8ccccc8O)nnc7NC[C@H]6C5)CC4)CC2)C3)C(C)(C)C)c(OC)c1 (single isomer, unassigned) [I-232] | – | 10 to 100 nM | – | 10 to 50 nM | – | 1 to 10 nM | C (C (10-100 fold)) | B (B (>70-90% degradation)) | A (A (>90% degradation)) | A (A (>90% degradation))
17 | C#Cc1ccc([C@H](C)NC(=O)[C@@H]2C[C@@H](O)CN2C(=O)[C@@H](NC(=O)[C@H]2CCC3(CC2)C[C@H](N2CCN(c4cnc(N5CCN6c7cc(-c8ccccc8O)nnc7NC[C@H]6C5)nc4)CC2)C3)C(C)(C)C)cc1 (single isomer, unassigned) [I-233] | 50 to 70% | > 100 nM | > 90% | 10 to 50 nM | 70 to 90% | 1 to 10 nM | C (C (10-100 fold)) | – | – | –

Reference: patent US20250170248A1, “SMARCA DEGRADERS AND USES THEREOF” (Kymera Therapeutics, Inc., priority 2021, published 2025)
